Results taken from PubChem BioAssay (NCI).
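Tested at 5 concentrations; 48 h exposure; 96-well plates; endpoints linearly interpolated, else capped at highest concentration. Definition used: TGI = concentration required for complete inhibition of growth.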

Key:
Test in all cases: inhibition of tumour cell growth, NCI panel, 48 h
786-0 renal = system: 786-0 renal
A498 renal = system: A498 renal
BT-549 breast = system: BT-549 breast
M14 melanoma = system: M14 melanoma
MCF7 breast = system: MCF7 breast
MDA-MB-435 = system: MDA-MB-435
OVCAR-4 ovarian = system: OVCAR-4 ovarian
RXF 393 renal = system: RXF 393 renal
SK-MEL-2 melanoma = system: SK-MEL-2 melanoma
MDA-MB-231 breast = system: MDA-MB-231 breast

Compound | TGI (786-0 renal) [µM] | TGI (A498 renal) [µM] | TGI (BT-549 breast) [µM] | TGI (M14 melanoma) [µM] | TGI (MCF7 breast) [µM] | TGI (MDA-MB-435) [µM] | TGI (OVCAR-4 ovarian) [µM] | TGI (RXF 393 renal) [µM] | TGI (SK-MEL-2 melanoma) [µM] | TGI (MDA-MB-231 breast) [µM]
CCCCSc1nsc(N(C(=O)c2ccccc2)C(=O)c2ccccc2)n1 | > 100 | 88.8 | 92.1 | > 100 | > 100 | > 100 | > 100 | > 100 | 71.1 | 
COc1ccc(C2C3=C(COC3=O)Oc3cc4c(cc32)OCO4)c(OC)c1 (centres undefined) | > 100 | > 100 | > 100 | > 100 | > 100 | 5.49 | > 100 | 51 |  | > 100
C=C(C)OCOCCOC | > 100 | > 100 | > 100 | > 100 | > 100 | > 100 |  |  | > 100 | > 100
Cn1c(=O)c(-c2ccccc2)c(O)c2ccccc21 | > 100 | > 100 | > 100 |  | > 100 | > 100 | > 100 | > 100 |  | > 100
O=C(OCCN=c1c2ccccc2ccc2ccccc12)c1ccccc1 | > 100 |  | > 100 | > 100 | > 100 | > 100 | > 100 | > 100 | > 100 | > 100
O=C1NC2CCCCC2N=C1CC(=O)c1ccc(Br)cc1 (centres undefined) | > 100 | > 100 | 94.2 | > 100 | > 100 | > 100 |  | > 100 | > 100 | 35.7
COc1ccccc1CN=C1Nc2ccncc2S(=O)(=O)N1c1ccccc1 | > 100 | > 100 | > 100 | > 100 | > 100 | > 100 | > 100 | > 100 |  | 
CO[C@H]1SC[C@H](OC(C)=O)[C@H](OC(C)=O)[C@H]1OC(C)=O | > 100 |  | > 100 | > 100 | > 100 | > 100 | > 100 |  | > 100 | > 100
CCOc1ccc(Nc2nc(N)nc(N)c2N)cc1 | 52.3 | > 100 | 76.6 | > 100 | 38.1 | 65 | > 100 |  | > 100 | > 100
COc1ccc(/C=c2\s/c(=C3/SC(=S)N(c4ccccc4)C3=O)n(-c3ccccc3)c2=O)cc1 | > 100 | > 100 | > 100 | > 100 | > 100 | > 100 | > 100 |  |  | > 100
CCOC(=O)C1(C#N)C(c2ccccc2)CC(O)(c2ccc(Cl)cc2)C(C(=O)c2ccc(Cl)cc2)C1c1ccccc1 (centres undefined) | > 100 |  |  | > 100 |  |  | > 100 | > 100 | > 100 | 
CN1C(=O)N(C)C(O)C(Cl)(Br)C1=O (centres undefined) | > 100 | > 100 | > 100 | > 100 | > 100 | > 100 |  | > 100 | > 100 | > 100
CSc1nc(NC(C)C)c2c(n1)Sc1nc3ccccc3n1N=C2 | 16.7 | 12.6 | > 100 | > 100 | 60 | 70.3 | 22.5 |  | 47.3 | 30.2
CCCCC1=C(C(=O)N2CCOCC2)C2(OCCO2)C1=O | 40.6 | 62.1 | 78.8 | 43.8 | > 100 | 50.8 | > 100 | 50.3 | 71.7 | 
CS(=O)(=O)CSCSSCS(C)(=O)=O | 41.3 | > 100 |  | 40.8 |  |  | > 100 | 36.1 | 46.7 | 
CN(C)CC1CCC/C(=C\c2ccc(OC(=O)c3ccc(Cl)cc3)cc2)C1=O (centres undefined) | 2.3 | 22.6 | 7.55 | 3.27 | 1.58 | 4.01 | 8.94 |  | 10.6 | 5.73
CCOC(=O)c1s/c(=N\Nc2nc3ccccc3cc2C2OCCO2)n(Cc2ccccc2)c1C | > 100 | > 100 |  | > 100 |  |  | > 100 | > 100 | > 100 | 
COc1ccc(Nc2nc(N)c(C(=O)c3c[nH]c4ccccc34)s2)cc1 | 13.6 | 16.3 | > 40.5 | 16.4 | 18.8 |  | > 100 | 11.4 | > 72.5 | > 100
O=c1[nH]c2nc3ccccc3nc2[nH]c1=O | > 100 |  |  | > 100 | > 100 | > 100 | > 100 | > 100 | > 100 | > 100
CC(C)(C)OC(=O)NC(Cc1ccccc1)NC(=O)NC(=O)OCc1ccccc1 (centres undefined) | > 100 |  | > 100 | > 100 | > 100 | > 100 |  | 69.2 | > 100 | 
COc1cc(CC(C)NC(C)=O)cc(OC)c1 (centres undefined) | > 100 | > 100 | > 100 | > 100 | > 100 | > 100 |  | > 100 | > 100 | > 100
COc1ccccc1C1Nn2c(nc3ccccc3c2=O)N1c1ccc(C)cc1 (centres undefined) | 8.37 |  | 68.6 | 26.4 | 26.3 | 22.7 | 11.9 | 24 | 25.3 | 18.3
COC(=O)[C@@H]1CCCCC[C@H]2C(CO)=C(C)C(=O)C12 (some centres undefined) | > 100 | > 100 |  | > 100 |  |  | > 100 | > 100 | > 100 | 
COC(=O)C1(CCCCCBr)CCCCCCCCCCC1=O (centres undefined) | > 100 | 64.7 |  | > 100 | 42.2 | 87.5 | > 100 | 51.9 | 70.1 | 84.6
C=C1OC(c2ccccc2NC)=NC12CCCCC2 | > 100 | > 100 | > 100 | > 100 | > 100 | > 100 | > 100 | > 100 |  | > 100
